For this experiment, the target named is T1, cyclin D1/cdk 4 enzyme (Homo sapiens, UniProt P11802).
T1 construct: made in house; host or cells: Sf9 insect cells, recombinant baculovirus
Kind of experiment: CDK4 ELISA kinase assay (phospho-Rb ser 795 detection). Conditions: In Vitro Enzyme Assay, cyclin D1/cdk 4, read-out: CDK4 IC50. The format is biochemical. An outline of the steps:
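Inhibition was derived from A450 relative to control wells lacking compound, following an anti-phospho-Rb Ser795 sandwich of HRP detection. The reactions combined coated GST-Rb fragment, 200 μM ATP and baculovirus-expressed cyclin/CDK enzymes, incubated for 1 h at 30° C.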

34 compounds from US7713994B2 (Wyeth LLC, priority 2005, dated 2010) can be followed below.

The structures appear in SMILES notation. pIC50: −log10 of the molar value.

T1 sequence (P11802 whole entry, species assumed): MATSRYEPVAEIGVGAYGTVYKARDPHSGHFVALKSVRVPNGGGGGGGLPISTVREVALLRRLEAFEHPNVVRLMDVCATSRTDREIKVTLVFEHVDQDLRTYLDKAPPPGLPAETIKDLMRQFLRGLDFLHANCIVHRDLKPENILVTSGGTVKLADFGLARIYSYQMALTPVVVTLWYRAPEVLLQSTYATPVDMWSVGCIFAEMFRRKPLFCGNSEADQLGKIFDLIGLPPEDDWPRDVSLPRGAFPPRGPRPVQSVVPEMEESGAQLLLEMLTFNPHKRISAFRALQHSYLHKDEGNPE
T1 sequence (P24385 whole entry partner, species assumed): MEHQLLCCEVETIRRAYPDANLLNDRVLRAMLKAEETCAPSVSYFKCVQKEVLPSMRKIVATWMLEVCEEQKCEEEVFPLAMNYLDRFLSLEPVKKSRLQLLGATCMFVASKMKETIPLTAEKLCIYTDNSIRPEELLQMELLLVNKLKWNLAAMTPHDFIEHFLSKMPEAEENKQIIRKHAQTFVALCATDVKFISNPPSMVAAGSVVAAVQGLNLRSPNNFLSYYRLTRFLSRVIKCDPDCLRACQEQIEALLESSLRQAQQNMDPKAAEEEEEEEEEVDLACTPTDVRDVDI

In the case of `CN1CCN(c2ccc(NC=C3C(=O)NC(=O)c4ccc(-c5ccccc5F)cc43)cc2)CC1` [Example 684, 6-(2-Fluoro-phenyl)-4-{[4-(4-methyl-piperazin-1-yl)-phenylamino]-methylene}-4H-isoquinoline-1,3-dione], the pIC50 was 4.91.

For `CN1CCN(c2ccc(NC=C3C(=O)NC(=O)c4ccc(-c5cccc(C#N)c5)cc43)cc2)CC1` [Example 695, 3-(4-{[4-(4-Methyl-piperazin-1-yl)-phenylamino]-methylene}-1,3-dioxo-1,2,3,4-tetrahydro-isoquinolin-6-yl)-benzonitrile], the pIC50 is 4.84.

Take `CC(C)c1ccc(-c2ccc3c(c2)C(=CNCc2ccc(O)c(O)c2)C(=O)NC3=O)cc1` [Example 790, 4-[(3,4-Dihydroxy-benzylamino)-methylene]-6-(4-isopropyl-phenyl)-4H-isoquinoline-1,3-dione]: the pIC50 is 5.84.

With `O=C1NC(=O)c2ccccc2C1=CNc1ccc(N2CCN(C3CCCC3)CC2)cc1` [Example 601, 4-{[4-(4-Cyclopentyl-piperazin-1-yl)-phenylamino]-methylene}-4H-isoquinoline-1,3-dione], the pIC50 was 4.92.

Consider `CN1CCN(c2ccc(NC=C3C(=O)NC(=O)c4ccc(-c5ccc(CCC(=O)O)cc5)cc43)cc2)CC1` [Example 809, 3-[4-(4-{[4-(4-Methyl-piperazin-1-yl)-phenylamino]-methylene}-1,3-dioxo-1,2,3,4-tetrahydro-isoquinolin-6-yl)-phenyl]-propionic acid], for which the pIC50 was 4.86.

Consider `N#CCc1ccc(NC=C2C(=O)NC(=O)c3ccc(C=Cc4ccccc4)cc32)cc1` [Example 650, {4-[(1,3-Dioxo-6-styryl-2,3-dihydro-1H-isoquinolin-4-ylidenemethyl)-amino]-phenyl}-acetonitrile], for which the pIC50 was 4.78.

As for `O=C(O)CSc1ccc(NC=C2C(=O)NC(=O)c3ccccc32)cc1` [Example 548, {4-[(1,3-Dioxo-2,3-dihydro-1H-isoquinolin-4-ylidenemethyl)-amino]-phenylsulfanyl}-acetic acid], the pIC50 was 4.45.

Turning to `O=C1NC(=O)c2ccccc2C1=CNc1ccc(O)cc1` [Example 559, 4-[(4-Hydroxy-phenylamino)-methylene]-4H-isoquinoline-1,3-dione], the pIC50 is 4.71.

Consider `NS(=O)(=O)c1ccc(CNC=C2C(=O)NC(=O)c3ccc(-c4cccc(C(F)(F)F)c4)cc32)cc1` [Example 744, 4-({[1,3-Dioxo-6-(3-trifluoromethyl-phenyl)-2,3-dihydro-1H-isoquinolin-4-ylidenemethyl]-amino}-methyl)-benzenesulfonamide], for which the pIC50 was 4.31.

`Cc1ccccc1-c1ccc2c(c1)C(=CNc1ccc(N3CCN(C)CC3)cc1)C(=O)NC2=O` [Example 694, 4-{[4-(4-Methyl-piperazin-1-yl)-phenylamino]-methylene}-6-o-tolyl-4H-isoquinoline-1,3-dione]: the pIC50 was 4.49.

Take `CCN(CC)CCOC=Cc1ccc2c(c1)C(=CNc1ccc(N3CCN(C)CC3)cc1)C(=O)NC2=O` [Example 794, 6-[2-(2-Diethylamino-ethoxy)-vinyl]-4-{[4-(4-methyl-piperazin-1-yl)-phenylamino]-methylene}-4H-isoquinoline-1,3-dione]: the pIC50 was 4.38.

With `Cc1cccc(-c2ccc3c(c2)C(=CNc2ccc(N4CCN(C)CC4)cc2)C(=O)NC3=O)c1` [Example 693, 4-{[4-(4-Methyl-piperazin-1-yl)-phenylamino]-methylene}-6-m-tolyl-4H-isoquinoline-1,3-dione], the negative-log IC50 (pIC50) was 4.59.

Consider `N#CCc1ccc(NC=C2C(=O)NC(=O)c3ccc(-c4cccc(F)c4)cc32)cc1` [Example 705, (4-{[6-(3-Fluoro-phenyl)-1,3-dioxo-2,3-dihydro-1H-isoquinolin-4-ylidenemethyl]-amino}-phenyl)-acetonitrile], for which the pIC50 was 4.90.

Regarding `NS(=O)(=O)c1ccc(CNC=C2C(=O)NC(=O)c3ccc(-c4cccc(C=CC(=O)O)c4)cc32)cc1` [Example 760, 3-(3-{1,3-Dioxo-4-[(4-sulfamoyl-benzylamino)-methylene]-1,2,3,4-tetrahydro-isoquinolin-6-yl}-phenyl)-acrylic acid], the negative logarithm of the IC50 (pIC50) is 5.66.

Turning to `Cc1ccccc1-c1ccc2c(c1)C(=CNCc1ccc(O)c(O)c1)C(=O)NC2=O` [Example 783, 4-[(3,4-Dihydroxy-benzylamino)-methylene]-6-o-tolyl-4H-isoquinoline-1,3-dione], the pIC50 is 5.91.

In the case of `Nc1cccc(CNC=C2C(=O)NC(=O)c3ccccc32)c1` [Example 573, 4-[(3-Amino-benzylamino)-methylene]-4H-isoquinoline-1,3-dione], the pIC50 is 4.51.

On to `CC(C)N1CCN(c2ccc(NC=C3C(=O)NC(=O)c4ccccc43)cc2)CC1` [Example 600, 4-{[4-(4-Isopropyl-piperazin-1-yl)-phenylamino]-methylene}-4H-isoquinoline-1,3-dione], for which the pIC50 was 4.64.

As to `CC(=O)Nc1cccc(CNC=C2C(=O)NC(=O)c3ccccc32)c1` [Example 585, N-(3-{[(1,3-Dioxo-2,3-dihydro-1H-isoquinolin-4-ylidenemethyl)-amino]-methyl)-phenyl)-acetamide], the negative logarithm of the IC50 (pIC50) is 4.37.

Consider `CSc1ccccc1-c1ccc2c(c1)C(=CNCc1ccc(O)c(O)c1)C(=O)NC2=O` [Example 793, 4-[(3,4-Dihydroxy-benzylamino)-methylene]-6-(2-methylsulfanyl-phenyl)-4H-isoquinoline-1,3-dione], for which the negative logarithm of the IC50 (pIC50) was 5.71.

Turning to `CCS(=O)(=O)Nc1cccc(CNC=C2C(=O)NC(=O)c3ccccc32)c1` [Example 583, Ethanesulfonic acid (3-{[(1,3-dioxo-2,3-dihydro-1H-isoquinolin-4-ylidenemethyl)-amino]-methyl}-phenyl)-amide], the pIC50 was 4.75.

For the compound `O=C1NC(=O)c2ccccc2C1=CNc1ccc(N2CCN(CC3CCC3)CC2)cc1` [Example 602, 4-{[4-(4-Cyclobutylmethyl-piperazin-1-yl)-phenylamino]-methylene}-4H-isoquinoline-1,3-dione], the pIC50 is 4.67.

With `CC(C)c1cccc(-c2ccc3c(c2)C(=CNCc2ccc(S(N)(=O)=O)cc2)C(=O)NC3=O)c1` [Example 762, 4-({[6-(3-Isopropyl-phenyl)-1,3-dioxo-2,3-dihydro-1H-isoquinolin-4-ylidenemethyl]-amino}-methyl)-benzenesulfonamide], the pIC50 is 4.47.

Consider `Cc1ccccc1-c1ccc2c(c1)C(=CNc1ccc(CC#N)cc1)C(=O)NC2=O` [Example 717, {4-[(1,3-Dioxo-6-o-tolyl-2,3-dihydro-1H-isoquinolin-4-ylidenemethyl)-amino]-phenyl}-acetonitrile], for which the pIC50 is 4.88.

`O=C1NC(=O)c2ccc(-c3cccc4ccccc34)cc2C1=CNCc1ccc(O)c(O)c1` [Example 640, 4-[(3,4-Dihydroxy-benzylamino)-methylene]-6-naphthalen-1-yl-4H-isoquinoline-1,3-dione]: the pIC50 was 4.66.

In the case of `O=C1NC(=O)c2ccccc2C1=CNNc1cccc(C(=O)O)c1` [Example 552, 3-[N′-(1,3-Dioxo-2,3-dihydro-1H-isoquinolin-4-ylidenemethyl)-hydrazino]-benzoic acid], the pIC50 was 4.49.

For the compound `N#CCc1ccc(NC=C2C(=O)NC(=O)c3ccc(-c4cccc(C(=O)O)c4)cc32)cc1` [Example 708, 3-{4-[(4-Cyanomethyl-phenylamino)-methylene]-1,3-dioxo-1,2,3,4-tetrahydro-isoquinolin-6-yl}-benzoic acid], the pIC50 was 5.00.

Take `O=C1NC(=O)c2ccccc2C1=CNc1ccc(N2CCN(CCN3CCOCC3)CC2)cc1` [Example 571, 4-({4-[4-(2-Morpholin-4-yl-ethyl)-piperazin-1-yl]-phenylamino}-methylene)-4H-isoquinoline-1,3-dione]: the negative-log IC50 (pIC50) is 4.47.

Take `CN1CCN(c2ccc(NC=C3C(=O)NC(=O)c4ccc(-c5ccc6ccccc6c5)cc43)cc2)CC1` [Example 668, 4-{[4-(4-Methyl-piperazin-1-yl)-phenylamino]-methylene}-6-naphthalen-2-yl-4H-isoquinoline-1,3-dione]: the pIC50 was 4.66.

Consider `N#CCc1ccc(NC=C2C(=O)NC(=O)c3ccc(-c4cccc(Cl)c4)cc32)cc1` [Example 713, (4-{[6-(3-Chloro-phenyl)-1,3-dioxo-2,3-dihydro-1H-isoquinolin-4-ylidenemethyl]-amino}-phenyl)-acetonitrile], for which the pIC50 was 4.89.

For the compound `O=C1NC(=O)c2ccc(C=CCc3ccccc3)cc2C1=CNc1ccc(CN2CCCC2)cc1` [Example 622, 6-(3-Phenyl-propenyl)-4-[(4-pyrrolidin-1-ylmethyl-phenylamino)-methylene]-4H-isoquinoline-1,3-dione], the pIC50 is 4.43.

Take `CS(=O)(=O)NCc1ccc(NC=C2C(=O)NC(=O)c3ccccc32)cc1` [Example 612, N-{4-[(1,3-Dioxo-2,3-dihydro-1H-isoquinolin-4-ylidenemethyl)-amino]-benzyl}-methanesulfonamide]: the pIC50 is 4.31.

Turning to `O=C1NC(=O)c2ccccc2C1=CNc1ccccc1OC(F)(F)F` [Example 541, 4-[(2-Trifluoromethoxy-phenylamino)-methylene]-4H-isoquinoline-1,3-dione], the pIC50 is 4.43.

As for `N#CCc1ccc(NC=C2C(=O)NC(=O)c3ccc(-c4ccc(Cl)cc4)cc32)cc1` [Example 712, (4-{[6-(4-Chloro-phenyl)-1,3-dioxo-2,3-dihydro-1H-isoquinolin-4-ylidenemethyl]-amino}-phenyl)-acetonitrile], the pIC50 was 5.10.

With `O=C1NC(=O)c2ccccc2C1=CNCc1ccc(NS(=O)(=O)Cc2ccccc2)cc1` [Example 590, N-(4{[(1,3-Dioxo-2,3-dihydro-1H-isoquinolin-4-ylidenemethyl)-amino]-methyl}-phenyl)-C-phenyl-methanesulfonamide], the pIC50 was 4.41.
